Tests used:
NCI-H1975 = experiment: cells; assay type: functional, cell-based; conditions: Homo sapiens
[1] = Cytotoxicity against human SKBR3 cells expressing wild type EGFR assessed as growth inhibition incubated for 1 hr prior to EGF challenge measured after 72 hrs by luciferase reporter gene assay; assay type: functional, cell-based; conditions: SK-BR-3
[2] = biological target: Epidermal growth factor receptor (Homo sapiens, UniProt P00533, L858R/T790M); assay type: cell-based, NCI-H1975
[3] = biological target: Epidermal growth factor receptor (Homo sapiens, UniProt P00533); experiment: Inhibition of recombinant wild type EGFR kinase(unknown origin) after 30 mins in presence of [gamma32P]ATP
Epidermal growth factor receptor (Homo sapiens, UniProt P00533), sequence (P00533 whole entry): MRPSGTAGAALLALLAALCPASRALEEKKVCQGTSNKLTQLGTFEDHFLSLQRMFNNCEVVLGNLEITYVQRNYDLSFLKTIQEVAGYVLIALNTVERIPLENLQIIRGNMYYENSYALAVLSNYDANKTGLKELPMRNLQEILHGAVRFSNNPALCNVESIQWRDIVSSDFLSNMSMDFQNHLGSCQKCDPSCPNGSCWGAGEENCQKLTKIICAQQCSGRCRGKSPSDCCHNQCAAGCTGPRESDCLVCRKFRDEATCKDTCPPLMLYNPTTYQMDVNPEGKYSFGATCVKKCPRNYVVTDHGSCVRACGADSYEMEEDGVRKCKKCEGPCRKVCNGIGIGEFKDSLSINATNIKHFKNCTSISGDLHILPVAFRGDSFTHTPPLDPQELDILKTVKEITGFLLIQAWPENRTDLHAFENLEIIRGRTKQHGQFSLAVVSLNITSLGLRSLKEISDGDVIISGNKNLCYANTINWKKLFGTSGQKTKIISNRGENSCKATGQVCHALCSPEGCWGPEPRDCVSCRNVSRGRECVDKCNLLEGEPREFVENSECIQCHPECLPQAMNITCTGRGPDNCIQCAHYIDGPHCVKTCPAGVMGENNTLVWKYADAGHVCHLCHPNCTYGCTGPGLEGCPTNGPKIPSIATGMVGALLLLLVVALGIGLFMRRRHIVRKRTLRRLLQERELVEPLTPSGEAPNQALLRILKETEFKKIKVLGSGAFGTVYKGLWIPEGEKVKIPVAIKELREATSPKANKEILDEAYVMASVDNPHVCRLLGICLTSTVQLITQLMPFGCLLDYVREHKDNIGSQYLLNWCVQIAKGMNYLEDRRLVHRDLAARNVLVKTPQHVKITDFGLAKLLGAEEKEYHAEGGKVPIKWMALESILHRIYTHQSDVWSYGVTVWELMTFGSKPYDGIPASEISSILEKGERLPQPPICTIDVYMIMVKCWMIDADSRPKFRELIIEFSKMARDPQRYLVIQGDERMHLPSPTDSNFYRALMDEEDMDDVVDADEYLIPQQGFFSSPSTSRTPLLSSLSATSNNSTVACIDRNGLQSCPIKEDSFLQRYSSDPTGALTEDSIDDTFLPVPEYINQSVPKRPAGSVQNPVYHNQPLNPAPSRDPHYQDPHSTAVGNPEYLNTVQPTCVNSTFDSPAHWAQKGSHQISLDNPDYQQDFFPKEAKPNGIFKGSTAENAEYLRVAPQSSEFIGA

Epidermal growth factor receptor (Homo sapiens, UniProt P00533, L858R/T790M), sequence (P00533 25-1210 T790M/L858R limits assumed): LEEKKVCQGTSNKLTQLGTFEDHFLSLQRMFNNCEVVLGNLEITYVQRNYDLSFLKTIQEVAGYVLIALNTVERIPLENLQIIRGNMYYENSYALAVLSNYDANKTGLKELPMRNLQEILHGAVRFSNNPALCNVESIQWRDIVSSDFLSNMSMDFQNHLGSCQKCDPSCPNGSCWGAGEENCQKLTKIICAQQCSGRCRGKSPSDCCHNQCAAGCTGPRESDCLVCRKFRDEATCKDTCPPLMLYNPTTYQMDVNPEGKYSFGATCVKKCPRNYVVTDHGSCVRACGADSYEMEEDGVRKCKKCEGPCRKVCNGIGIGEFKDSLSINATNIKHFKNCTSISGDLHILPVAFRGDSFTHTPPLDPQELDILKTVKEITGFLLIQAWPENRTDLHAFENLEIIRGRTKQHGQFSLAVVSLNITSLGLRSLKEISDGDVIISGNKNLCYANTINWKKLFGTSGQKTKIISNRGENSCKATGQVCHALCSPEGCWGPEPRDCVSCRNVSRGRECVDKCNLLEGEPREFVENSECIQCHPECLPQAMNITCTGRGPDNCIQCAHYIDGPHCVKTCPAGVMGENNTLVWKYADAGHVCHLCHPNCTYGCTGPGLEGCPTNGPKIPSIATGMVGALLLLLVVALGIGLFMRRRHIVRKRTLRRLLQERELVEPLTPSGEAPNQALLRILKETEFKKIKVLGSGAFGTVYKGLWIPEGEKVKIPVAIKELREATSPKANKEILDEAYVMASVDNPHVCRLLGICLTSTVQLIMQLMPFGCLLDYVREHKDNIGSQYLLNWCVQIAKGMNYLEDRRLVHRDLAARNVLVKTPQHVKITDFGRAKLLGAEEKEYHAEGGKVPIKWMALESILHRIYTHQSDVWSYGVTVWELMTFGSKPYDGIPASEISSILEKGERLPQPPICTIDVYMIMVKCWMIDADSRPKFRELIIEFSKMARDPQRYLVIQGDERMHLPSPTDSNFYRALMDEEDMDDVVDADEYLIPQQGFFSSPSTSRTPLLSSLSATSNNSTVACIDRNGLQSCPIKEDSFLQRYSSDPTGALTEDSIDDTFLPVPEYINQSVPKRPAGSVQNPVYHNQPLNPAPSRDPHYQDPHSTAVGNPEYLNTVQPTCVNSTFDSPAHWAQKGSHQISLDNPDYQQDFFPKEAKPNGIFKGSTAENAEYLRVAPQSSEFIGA

| Compound | IC50 (NCI-H1975) | IC50 [2] | IC50 [3] | IC50 [1] |
| --- | --- | --- | --- | --- |
| C=CC(=O)Nc1ccc2ncnc(Nc3ccc(Br)cc3F)c2c1 | 0.28 µM | 36 nM | 2.1 nM | 510 nM |
| C=CC(=O)Nc1ccc2ncnc(Nc3ccc(S(=O)(=O)Nc4ccccn4)cc3)c2c1 | > 40 µM | 4390 nM | 9.8 nM | 390 nM |
| C=CC(=O)Nc1ccc2ncnc(Nc3ccc(Br)cc3C)c2c1 | 1.86 µM | – | 2.2 nM | 630 nM |
| C=CC(=O)Nc1ccc2ncnc(Nc3ccc(Br)c(OC)c3)c2c1 | 0.4 µM | – | 2.5 nM | 360 nM |
| C=CC(=O)Nc1ccc2ncnc(Nc3ccc(OC)cc3OC)c2c1 | 13.9 µM | – | – | 6890 nM |
| C=CC(=O)Nc1ccc2ncnc(Nc3ccccc3CC)c2c1 | 16 µM | 2000 nM | 18.9 nM | 7700 nM |
| C=CC(=O)Nc1ccc2ncnc(Nc3ccc(CC)cc3)c2c1 | 15.7 µM | – | 3.2 nM | 1140 nM |
| C=CC(=O)Nc1ccc2ncnc(Nc3ccc(S(N)(=O)=O)cc3)c2c1 | > 40 µM | – | 76.5 nM | 2500 nM |
| C=CC(=O)Nc1ccc2ncnc(Nc3ccc(S(=O)(=O)NC(=N)N)cc3)c2c1 | > 40 µM | – | 53.3 nM | > 40000 nM |
| C=CC(=O)Nc1ccc2ncnc(Nc3ccc(S(=O)(=O)Nc4nccs4)cc3)c2c1 | > 40 µM | – | 43.7 nM | 4000 nM |

Continued, in another order:

| IC50 (NCI-H1975) | IC50 [2] | IC50 [3] | Compound | IC50 [1] |
| --- | --- | --- | --- | --- |
| 0.44 µM | – | – | C=CC(=O)Nc1ccc2ncnc(Nc3cccc(Br)c3)c2c1 | 200 nM |
| > 40 µM | 2800 nM | 3.4 nM | C=CC(=O)Nc1ccc2ncnc(NC3CCCCC3)c2c1 | 400 nM |
| 33.8 µM | 280 nM | 3.95 nM | C=CC(=O)N1CCc2c(sc3ncnc(Nc4cccc(C)c4F)c23)C1 | 1400 nM |
| > 40 µM | – | 3.71 nM | C=CC(=O)N1CCc2c(sc3ncnc(Nc4ccc(Br)cc4F)c23)C1 | 2300 nM |
| > 40 µM | – | 4.4 nM | C=CC(=O)N1CCc2c(sc3ncnc(Nc4ccc(Br)c(C)c4)c23)C1 | > 40000 nM |
| 23.8 µM | – | 8.73 nM | C=CC(=O)N1CCc2c(sc3ncnc(Nc4cccc(CC)c4)c23)C1 | 3200 nM |
| 15.2 µM | 130 nM | 7.38 nM | C=CC(=O)N1CCc2c(sc3ncnc(Nc4ccc(CC)cc4)c23)C1 | 6200 nM |
| > 40 µM | > 5000 nM | > 150 nM | C=CC(=O)N1CCc2c(sc3ncnc(NC4CCCCC4)c23)C1 | > 40000 nM |
| 0.26 µM | – | 2.2 nM | C=CC(=O)Nc1ccc2ncnc(Nc3c(F)cccc3Br)c2c1 | 230 nM |
| 1.82 µM | – | 2.3 nM | C=CC(=O)Nc1ccc2ncnc(Nc3ccc(Br)c(C)c3)c2c1 | 1420 nM |
| 0.39 µM | 111000 nM | 1.5 nM | C=CC(=O)Nc1ccc2ncnc(Nc3cccc(C)c3F)c2c1 | 1860 nM |
| 0.68 µM | 275 nM | 2.7 nM | C=CC(=O)Nc1ccc2ncnc(Nc3cccc(CC)c3)c2c1 | 2820 nM |
